Measurements taken from paper PMC12844744, “Complexed Linalool with Beta-Cyclodextrin Improve Antihypertensive Activity: Pharmacokinetic and Pharmacodynamic Insights” (Pharmaceuticals, 2025).
Where two headings read alike, the source gives them in different places.

Assays:
[1] = system: spontaneously hypertensive rats (SHR); experiment: Chronic 60-day oral treatment: blood pressure and heart rate by tail-cuff plethysmography; format: in vivo, rat; settings: 50 mg/kg/day p.o., 60 days, vs SHR vehicle
Method: (§1) Before starting any treatment, animals were conditioned for one week to minimize stress-related variability in BP and HR measurements. SHRs were randomly assigned to three experimental groups: Group 1 (SHR + Vehicle): Received saline solution (0.1 mL/100 g, p.o.); Group 2 (SHR + LIN): Treated with (-)-linalool (50 mg/kg/day, p.o.); and Group 3 (SHR + LIN/β-CD): Treated with the LIN/β-cyclodextrin inclusion complex (50 mg/kg/day, p.o.). An additional control group of normotensive Wistar rats (Group 4: Wistar + Vehicle) received saline under the same dosing protocol to serve as a baseline.
All treatments were administered orally once daily (between 08:00 and 12:00 h) for a period of 60 days, and cardiovascular assessments were performed with all groups in the afternoon (between 12:00 and 18:00 h), approximately 60 min post-administration. BP and heart rate were measured every five days throughout the treatment period using the tail-cuff plethysmography method (Insight® V2.11, São Paulo, Brazil). Systolic and diastolic blood pressures were measured in triplicate for each animal, and the average of these values was used for data analysis and graphical representation.

[2] = system: isolated superior mesenteric artery rings from SHRs; experiment: Vascular reactivity of isolated superior mesenteric artery rings after 60-day treatment; format: in vivo, rat; settings: mesenteric rings from SHR treated 50 mg/kg/day 60 days, mean ± S.E.M.
[3] = Population PK model with covariates, oral administration data; format: in vivo, Wistar rats and SHR
Method: (§2) Population pharmacokinetic analysis was performed using Monolix® Suite 2019R1 software (Lixoft®, Antony, France). Structural models evaluated included 1- and 2-compartment models, first-order absorption, and linear elimination. Different error models were analyzed to explain the variability of the residual error, including a constant, proportional, and combined error model. […] The models were parameterized in V, ka, ke, and distribution constants (k1-2 and k2-1). The parameters were estimated with a stochastic approximation. The object function value (OFV), represented as −2 times the log-likelihood (−2LL) and Akaike Information Criterion (AIC), was used to compare the models.
(§3) The base model for i.v. and oral administration has been established. For oral linalool, after establishing the base model, new models adding the categorical covariates investigated in the study (complexed linalool administered in healthy rats and complexed linalool administered in SHRs) were developed. The visual analysis of the graphs and statistical tests (Pearson’s correlation and ANOVA) were carried out to verify if there is any relationship between the random effects of the parameters (h) and the covariables that could contribute to improving the model.
(§4) The graphs that correlate the plasma concentrations with the predicted individual or population plasma concentrations were evaluated by individual waste distribution charts (IWRES). Also, to evaluate whether simulations performed from the developed model are capable of reproducing the median and the variability of the observed data, a graph was generated to verify the predicted data visual predictive check (VPC).

[4] = system: spontaneously hypertensive rats (SHR); experiment: Acute oral (orogastric) effects on blood pressure and heart rate over 6 h; format: in vivo, rat; settings: oral 50 mg/kg, monitored 6 h, vs vehicle
[5] = Plasma pharmacokinetics (non-compartmental analysis), healthy Wistar rats; format: in vivo; settings: NCA, mean ± SD; for Fabs, Absolute bioavailability: 100 mg/kg; for AUC(0-inf): n = 6, read-out: AUC0−∞, Total Area Under the Curve; for MRT: n = 6, read-out: MRT, Mean Residence Time; for k el: n = 6, read-out: ke, elimination rate constant (converted); for half-life: n = 6, read-out: t1/2, half-life (converted)
Method: A bioanalytical methodology was developed and validated to quantify LIN in rat plasma using high-performance liquid chromatography with UV detection (HPLC/UV), according to RDC 27/2012 of the National Agency of Sanitary Vigilance, Brazil. Plasma aliquots (100 µL) were extracted with 300 µL of acetonitrile.
The samples were vortexed for 3 min and centrifuged at 13,000× g for 15 min, at 8 °C. The supernatant aliquots were injected into an HPLC instrument (PerkinElmer, Waltham, MA, USA), Flexar™ HPLC model), using reversed-phase column C18 (Nucleosil column 250 mm × 4.6 mm internal diameter, particle size 5 μm (Macherey—Nagel, Versmold, Germany) protected by a guard column with the same material (Hypersil BDS, 10 mm, particle size 5 μm (Thermo Scientific, Waltham, MA, USA) at a temperature of 50 ± 1 °C during the analysis.
The mobile phase was composed of water: acetonitrile (70:30, v/v), at a flow rate of 1 mL/min. LIN was detected at a wavelength of 210 nm, and the peak area was used for the quantitation of samples. The method was precise, sensitive and accurate within the concentration range of 5–100 ng/mL. All samples quantified were between the concentration range, the higher concentrations were diluted to reach the higher linear concentration.
Plasma pharmacokinetic parameters were estimated after administration of 50 mg/kg and 100 mg/kg, i.v. and orally, respectively, of LIN; 100 mg/kg orally of LIN/β-CD, in healthy Wistar rats; and 50 mg/kg of LIN/β-CD, in SHRs.
The animals received the drugs at the above doses through the caudal lateral vein or by oral gavage. Six animals were evaluated per group, as stated in the literature. After administration of the compounds, approximately 200 µL of blood samples were collected from the caudal lateral vein at 0.083, 0.25, 0.5, 1, 1.5, 2, 4, 6, and 8 h. Plasma was separated by centrifugation (6800× g at 8 ± 1 °C for 15 min) and stored at −20 °C until analysis. Non-compartmental analysis (NCA) of the individual concentration-time profiles was performed using Excel® 2016 software (Microsoft Corporation, Redmond, […], USA).
Calculated pharmacokinetic parameters included: the elimination rate constant (ke), absorption rate constant (ka), area under the concentration-time curve from 0 h to infinity (AUC0−∞), clearance (Cltot), half-life (t1/2), the volume of distribution (V), mean residence time (MRT), mean absorption time (MAT), absolute bioavailability (Fabs) and relative bioavailability (Frel). All the pharmacokinetic (PK) parameters were estimated individually aby analyzing the individual PK profiles. Results were expressed as the mean ± SD, and the PK parameters were compared by ANOVA followed by Student’s t-test (α = 0.05).

[6] = Population PK model, intravenous administration in healthy rats; format: in vivo, Wistar rats; settings: i.v., 2-compartment model, linear elimination, combined error
Method: as §2, §3, §4

[7] = design: method as in PMID 16596022; settings: cited from earlier work
[8] = Body weight progression during 60-day treatment; format: in vivo, rat; settings: 50 mg/kg/day p.o., 60 days
Method: as §1

[9] = system: spontaneously hypertensive rats (SHR); experiment: Cardiac mass index after 60-day treatment; format: in vivo, rat; settings: 50 mg/kg/day p.o., 60 days, vs SHR vehicle
Method: (§5) After 60 days of treatment period, Wistar and SHRs were euthanized in a carbon dioxide (CO2) chamber. Hearts were carefully excised, and surrounding adipose tissue and vascular structures were meticulously removed. Each heart was weighed using an analytical balance, and the cardiac mass index was calculated by normalizing the heart weight to the total body weight of the animal. A transverse cut was then made, and the left and right ventricles, and thoracic aortas. Both tissues were fixed in 4% formaldehyde for histological processing.

[10] = system: spontaneously hypertensive rats (SHR); experiment: Acute intravenous effects on blood pressure and heart rate; format: in vivo, rat; settings: i.v. 50 mg/kg, n = 5, mean ± S.E.M.
Description: This protocol aimed to evaluate the acute hemodynamic effects of LIN, administered intravenously (i.v.), on blood pressure (BP) and heart rate (HR) in spontaneously hypertensive rats (SHR) and normotensive Wistar rats. Animals were anesthetized with ketamine and xylazine (Cristália), and following trichotomy of the iliac region, polyethylene (PE) catheters were implanted into the femoral artery and vein.
The catheters consisted of PE-10 segments (internal/external diameter: 0.28/0.61 mm) connected to PE-50 catheter (internal/external diameter: 0.58/0.96 mm). To prevent catheter blockage during the hemodynamic recordings, the arterial and venous catheters were implanted pre-filled with a sterile saline–heparin solution (heparin: 100 UI). […]
Following a 24 h recovery period, baseline physiological parameters, including systolic BP (SBP), diastolic BP (DBP), and heart rate, were recorded. BP was continuously monitored via the arterial catheter connected to a pressure transducer (ADInstruments, São Paulo, Brazil). The signal was amplified and digitized at 1 kHz using a PowerLab 8/35 data acquisition system and analyzed with LabChart 8 Pro software (ADInstruments, São Paulo, Brazil). Once cardiovascular parameters stabilized, SBP, DBP, and HR were recorded as baseline control values. […]

[11] = system: spontaneously hypertensive rats (SHR); experiment: Histology of left ventricle and aorta (HE, Picrosirius Red) after 60-day treatment; format: in vivo, rat; settings: 50 mg/kg/day p.o., 60 days
Method: as §5
The hearts and thoracic aortas were fixed in 4% buffered formaldehyde (0.1 M sodium phosphate buffer, pH 7.4), followed by washing in distilled water. Tissue dehydration was carried out in a graded ethanol series of increasing concentrations, ending with absolute ethanol. Samples were then cleared in xylene, embedded in paraffin, and sectioned using a microtome (RM2125RT, Leica®, Wetzlar, Germany) to obtain serial 5 μm sections. […]
Histological evaluation was conducted in a blinded manner. […] Parameters assessed included the presence or absence of inflammatory infiltrates, hemorrhagic areas, and structural alterations such as decreased cardiomyocyte volume, disruption of muscle fiber continuity, loss of transverse striations, sarcoplasmic granulation, contraction bands, and nuclear changes indicative of tissue injury. […]

[12] = 2-compartment model, first-order absorption, covariates Complex and Complex SHR in V and k12

V, volume of distribution (population estimate) [3, 12]: 15.28 L | k21, distribution microconstant (population estimate) [3, 12]: 0.0711 h⁻¹ | ka, absorption rate constant (population estimate) [3, 12]: 0.226 h⁻¹ | k el ([3]; Wistar and SHR, rat, plasma, 2-compartment model, first-order absorption, covariates Complex and Complex SHR in V and k12, read-out: ke, first-order rate elimination (population estimate) (converted)): 4.53e-05 s⁻¹ | V (typical population parameter, as given in text) ([3]; final model with covariates): 15.28 L/kg | CL, clearance ([5]; oral 100 mg/kg, n = 6): 84.3 ± 37.8 mL/min/kg | MAT, Mean absorption time ([5]; oral 100 mg/kg, n = 6): 4.69 ± 1.50 h | Vd, Volume of Distribution ([5]; oral 100 mg/kg, n = 6): 16.29 ± 10.73 L/kg | ka, absorption rate constant ([5]; oral 100 mg/kg, n = 6): 0.23 ± 0.07 h⁻¹ | Fabs, Absolute bioavailability ([5]; oral 100 mg/kg, n = 6, listed as LIN Free): 0.003 ± 0.001% | Fabs, Absolute bioavailability ([5]; oral 100 mg/kg, n = 6, listed as free LIN): approximately 0.003% | AUC(0-inf) ([5]; rat, plasma, iv, i.v. 50 mg/kg): 25300 ± 18600 ng·h/mL | clearance ([5]; rat, plasma, iv, i.v. 50 mg/kg, n = 6, read-out: CL, clearance (converted)): 50.5 mL/min/kg | MRT ([5]; rat, plasma, iv, i.v. 50 mg/kg): 8.75 ± 4.78 h | Vd ([5]; rat, plasma, iv, i.v. 50 mg/kg, n = 6, read-out: Vd, Volume of Distribution): 25.2 ± 10.4 L/kg | k el ([5]; rat, plasma, iv, i.v. 50 mg/kg): 3.61e-05 s⁻¹ | half-life ([5]; rat, plasma, iv, i.v. 50 mg/kg): 6.6 ± 4.04 h | AUC(0-inf) ([5]; rat, plasma, oral 100 mg/kg): 40 ± 20 ng·h/mL | MRT ([5]; rat, plasma, oral 100 mg/kg): 1.97 ± 0.65 h | k el ([5]; rat, plasma, oral 100 mg/kg): 2.5e-05 s⁻¹ | half-life ([5]; rat, plasma, oral 100 mg/kg): 8.64 ± 4.44 h | Vd ([6]; Wistar, rat, plasma, iv, 50 mg/kg, read-out: V, volume of distribution (population estimate)): 22.4 L | k el ([6]; Wistar, rat, plasma, iv, 50 mg/kg, read-out: ke, first-order elimination rate (population estimate) (converted)): 0.000101 s⁻¹ | k12, distribution constant (population estimate) [6]: 0.461 h⁻¹ | k21, distribution constant (population estimate) [6]: 1.05 h⁻¹ | Aortic histology ([11]; aorta): no signs of vascular remodeling
SMILES: C=CC(C)(O)CCC=C(C)C (stereo not shown) [LIN, 3,7-dimethyl-1,6-octadien-3-ol]
Effect on arterial pressure, chronic treatment [1]: significantly reduced arterial pressure | Emax of contractile response to phenylephrine ([2]; Phe 10^−10 to 10^−5 M, expressed as percentage of KCl 60 mM contraction, in %): 146.72 ± 12.34 | Emax of endothelium-independent relaxation to sodium nitroprusside ([2]; SNP 10^−13 to 10^−5 M, percentage of Phe-induced contraction, in %): −121.04 ± 10.45 | Emax of endothelium-dependent vasorelaxation to acetylcholine ([2]; in % (unit assumed)): −70.52 ± 6.80 | Effect on blood pressure after oral administration [4]: failed to produce any significant antihypertensive effect | LogP [7]: ~ 3.3 | Body weight progression [8]: no significant changes | Cardiac mass index (heart weight / body weight) [9]: not observed | %HR, percent change in heart rate relative to baseline [10]: −54.54 ± 4.84% | %MAP, percent change in mean arterial pressure relative to baseline [10]: −56.64 ± 5.05% | Myocardial histology (hematoxylin-eosin) ([11]; left ventricle): preserved myocardial morphology
